Assay results: ChEMBL document CHEMBL1671792, “Conformationally constrained farnesoid X receptor (FXR) agonists: heteroaryl replacements of the naphthalene” (Bioorg Med Chem Lett, 2011)
≈ marks a conversion by molar mass, not a printed value. One block for each compound: values may come before it. Calls of active or inactive are those of the source. The rule behind the calls is not given here.

Key:
Bile acid receptor [1] = target: T1, Bile acid receptor (Homo sapiens, UniProt Q96RI1); experiment: Agonist activity at human FXR LBD assessed as SRC1 peptide recruitment by FRET assay; format: functional
T1 sequence (Q96RI1 whole entry): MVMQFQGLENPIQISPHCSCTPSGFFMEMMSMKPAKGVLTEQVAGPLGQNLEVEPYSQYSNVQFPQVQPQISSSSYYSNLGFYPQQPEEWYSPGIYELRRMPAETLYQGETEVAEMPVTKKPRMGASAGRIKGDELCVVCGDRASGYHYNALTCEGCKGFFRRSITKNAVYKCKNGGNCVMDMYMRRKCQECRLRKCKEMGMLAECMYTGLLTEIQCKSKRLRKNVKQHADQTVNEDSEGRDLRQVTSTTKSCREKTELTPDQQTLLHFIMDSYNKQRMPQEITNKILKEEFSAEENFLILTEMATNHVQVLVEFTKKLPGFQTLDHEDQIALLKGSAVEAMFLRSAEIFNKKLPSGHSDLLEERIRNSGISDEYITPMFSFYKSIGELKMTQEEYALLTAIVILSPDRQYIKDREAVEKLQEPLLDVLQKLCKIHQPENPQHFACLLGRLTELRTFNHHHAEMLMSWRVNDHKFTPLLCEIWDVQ

[2] = target: T2, Bile acid receptor (Homo sapiens) (UniProt Q96RI1); experiment: Agonist activity at human FXR LBD assessed as SRC1 peptide recruitment by FRET assay relative to GW 4064; format: functional
T2 sequence (whole entry): T1 sequence (Q96RI1 whole entry)

Bile acid receptor [3] = target: T1, Bile acid receptor; experiment: Agonist activity at human FXR LBD iexpressed in monkey CV-1 cells assessed as transactivation of luciferase reporter gene expression; format: functional, cell-based
[4] = target: T2, Bile acid receptor (Homo sapiens); experiment: Agonist activity at human FXR LBD iexpressed in monkey CV-1 cells assessed as transactivation of luciferase reporter gene expression relative to GW 4064; format: functional, cell-based; design: concentration or dose not given beside the values
Rattus norvegicus = experiment: Dose normalized AUC in orally dosed rat; format: ADME, organism-based; settings: in vivo, po
Cynomolgus monkey = experiment: Dose normalized AUC in orally dosed cynomolgus monkey; format: ADME, organism-based, Macaca fascicularis; settings: in vivo, po
Homo sapiens [5] = species on record: Homo sapiens; experiment: Selectivity ratio of EC50 for human FXR to EC50 for human LRH
Homo sapiens [6] = species on record: Homo sapiens; experiment: Selectivity ratio of EC50 for human FXR to EC50 for human LXRalpha
Homo sapiens [7] = species on record: Homo sapiens; experiment: Selectivity ratio of EC50 for human FXR to EC50 for human LXRbeta
Homo sapiens [8] = species on record: Homo sapiens; experiment: Selectivity ratio of EC50 for human FXR to EC50 for human PPARalpha
Homo sapiens [9] = species on record: Homo sapiens; experiment: Selectivity ratio of EC50 for human FXR to EC50 for human PPARgamma
Homo sapiens [10] = species on record: Homo sapiens; experiment: Selectivity ratio of EC50 for human FXR to EC50 for human PPARdelta
Homo sapiens [11] = species on record: Homo sapiens; experiment: Selectivity ratio of EC50 for human FXR to EC50 for human PXR
Homo sapiens [12] = species on record: Homo sapiens; experiment: Selectivity ratio of EC50 for human FXR to EC50 for human RORalpha
Homo sapiens [13] = species on record: Homo sapiens; experiment: Selectivity ratio of EC50 for human FXR to EC50 for human RXRalpha
[14] = Solubility of compound in fasted state-simulated intestinal fluid at pH 6.5; format: physicochemical; settings: simulated gi fluid
[15] = target: T2, Bile acid receptor (Homo sapiens); experiment: Binding affinity to human FXR by X-ray crystallography
[16] = Half life in iv dosed mouse; format: ADME, organism-based; settings: in vivo
[17] = Half life in iv dosed rat; format: ADME, organism-based; settings: in vivo
[18] = Half life in iv dosed Beagle dog; format: ADME, organism-based, Canis lupus familiaris; settings: in vivo
[19] = Half life in iv dosed cynomolgus monkey; format: ADME, organism-based, Macaca fascicularis; settings: in vivo
[20] = Clearance in iv dosed mouse; format: ADME, organism-based; settings: in vivo
[21] = Clearance in iv dosed rat; format: ADME, organism-based; settings: in vivo
[22] = Clearance in iv dosed Beagle dog; format: ADME, organism-based, Canis lupus familiaris; settings: in vivo
[23] = Clearance in iv dosed cynomolgus monkey; format: ADME, organism-based, Macaca fascicularis; settings: in vivo
[24] = Volume of distribution at steady state in iv dosed mouse; format: ADME, organism-based; settings: in vivo, read-out: Vdss
[25] = Volume of distribution at steady state in iv dosed rat; format: ADME, organism-based; settings: in vivo, read-out: Vdss
[26] = Volume of distribution at steady state in iv dosed Beagle dog; format: ADME, organism-based, Canis lupus familiaris; settings: in vivo, read-out: Vdss
[27] = Volume of distribution at steady state in iv dosed cynomolgus monkey; format: ADME, organism-based, Macaca fascicularis; settings: in vivo, read-out: Vdss
[28] = Oral bioavailability in mouse; format: ADME, organism-based; settings: in vivo
[29] = Oral bioavailability in rat; format: ADME, organism-based; settings: in vivo
[30] = Oral bioavailability in Beagle dog; format: ADME, organism-based, Canis lupus familiaris; settings: in vivo
[31] = Oral bioavailability in cynomolgus monkey; format: ADME, organism-based, Macaca fascicularis; settings: in vivo
Mus musculus = experiment: Dose normalized AUC in orally dosed mouse; format: ADME, organism-based; settings: in vivo, po
Canis familiaris = experiment: Dose normalized AUC in orally dosed Beagle dog; format: ADME, organism-based, Canis lupus familiaris; settings: in vivo, po

EC50 (Bile acid receptor [1]): 51 nM
Activity [2]: 91%
EC50 (Bile acid receptor [3]): > 10000 nM
SMILES: CC(C)c1onc(-c2c(Cl)cccc2Cl)c1COc1ccc(-c2ccc3nc(C(=O)O)cc(O)c3c2)cc1

EC50 (Bile acid receptor [1]): 59 nM
Activity [2]: 113%
EC50 (Bile acid receptor [3]): 22 nM
Activity [4]: 93%
SMILES: CCCOc1cc(C(=O)O)nc2ccc(-c3ccc(OCc4c(-c5c(Cl)cccc5Cl)noc4C(C)C)cc3)cc12

EC50 (Bile acid receptor [1]): 81 nM
Activity [2]: 108%
EC50 (Bile acid receptor [3]): 24 nM
Activity [4]: 107%
SMILES: Cc1cc(C(=O)O)nc2ccc(-c3ccc(OCc4c(-c5c(Cl)cccc5Cl)noc4C(C)C)cc3)cc12

EC50 (Bile acid receptor [1]): 58 nM
Activity [2]: 113%
EC50 (Bile acid receptor [3]): 17 nM
Activity [4]: 107%
SMILES: COc1cc(C(=O)O)nc2ccc(-c3ccc(OCc4c(-c5c(Cl)cccc5Cl)noc4C(C)C)cc3)cc12

EC50 (Bile acid receptor [1]): 78 nM
Activity [2]: 105%
EC50 (Bile acid receptor [3]): 81 nM
Activity [4]: 93%
SMILES: CC(C)COc1cc(C(=O)O)nc2ccc(-c3ccc(OCc4c(-c5c(Cl)cccc5Cl)noc4C(C)C)cc3)cc12

EC50 (Bile acid receptor [1]): 75 nM
Activity [2]: 106%
EC50 (Bile acid receptor [3]): 32 nM
Activity [4]: 109%
SMILES: CCc1cc(C(=O)O)nc2ccc(-c3ccc(OCc4c(-c5c(Cl)cccc5Cl)noc4C(C)C)cc3)cc12

EC50 (Bile acid receptor [1]): 40 nM
Activity [2]: 113%
EC50 (Bile acid receptor [3]): 14 nM
Activity [4]: 103%
SMILES: CC(C)Oc1cc(C(=O)O)nc2ccc(-c3ccc(OCc4c(-c5c(Cl)cccc5Cl)noc4C(C)C)cc3)cc12

EC50 (Bile acid receptor [1]): 52 nM
Activity [2]: 99%
EC50 (Bile acid receptor [3]): 14 nM
Activity [4]: 84%
SMILES: CCOc1cc(C(=O)O)nc2ccc(-c3ccc(OCc4c(-c5c(Cl)cccc5Cl)noc4C(C)C)cc3)cc12

EC50 (Bile acid receptor [1]): 140 nM
Activity [2]: 102%
EC50 (Bile acid receptor [3]): 1000 nM
Activity [4]: 127%
SMILES: Cc1nc(C(=O)O)nc2ccc(-c3ccc(OCc4c(-c5c(Cl)cccc5Cl)noc4C(C)C)cc3)cc12

The next lines start with the compound.

SMILES: Cc1cc(OCc2c(-c3c(Cl)cccc3Cl)noc2C(C)C)ccc1-c1ccc2nc(C(=O)O)ccc2c1
EC50 (Bile acid receptor [1]): 250 nM
Activity [2]: 87%
EC50 (Bile acid receptor [3]): 52 nM
Activity [4]: 91%

SMILES: CC(C)c1onc(-c2c(Cl)cccc2Cl)c1COc1ccc(-c2ccc3nc(C(=O)O)nnc3c2)cc1
EC50 (Bile acid receptor [1]): 360 nM
Activity [2]: 100%
EC50 (Bile acid receptor [3]): > 10000 nM

SMILES: CC(C)c1onc(-c2c(Cl)cccc2Cl)c1COc1ccc(-c2ccc3c(C(=O)O)nccc3c2)cc1
EC50 (Bile acid receptor [1]): 380 nM
Activity [2]: 92%
EC50 (Bile acid receptor [3]): 190 nM
Activity [4]: 102%

SMILES: CC(C)c1onc(-c2c(Cl)cccc2Cl)c1COc1ccc(-c2cc3ccc(C(=O)O)nc3cc2F)cc1
EC50 (Bile acid receptor [1]): 240 nM
Activity [2]: 115%
EC50 (Bile acid receptor [3]): 110 nM
Activity [4]: 107%

SMILES: CC(C)c1onc(-c2c(Cl)cccc2Cl)c1COc1ccc(-c2ccc3c(C(=O)O)ccnc3c2)cc1
EC50 (Bile acid receptor [1]): 340 nM
Activity [2]: 99%
EC50 (Bile acid receptor [3]): 560 nM
Activity [4]: 85%

SMILES: CC(C)c1onc(-c2c(Cl)cccc2Cl)c1COc1ccc(-c2ccc3c(C(=O)O)cccc3c2)cc1
Activity [2]: 134%
Activity [4]: 104%
AUC (Rattus norvegicus): 23 ng·kg·h/mg/mL
AUC (Cynomolgus monkey): 1130 ng·kg·h/mg/mL
Ratio EC50 (Homo sapiens [5]): 100
Ratio EC50 (Homo sapiens [6]): 100
Ratio EC50 (Homo sapiens [7]): 100
Ratio EC50 (Homo sapiens [8]): 100
Ratio EC50 (Homo sapiens [9]): 100
Ratio EC50 (Homo sapiens [10]): 100
Ratio EC50 (Homo sapiens [11]): 100
Ratio EC50 (Homo sapiens [12]): 100
Ratio EC50 (Homo sapiens [13]): 100
solubility [14]: 1 ng/mL (≈ 1.88 nM)
Activity [15]: Active

SMILES: Cc1cc(-c2ccc3nc(C(=O)O)ccc3c2)ccc1OCc1c(-c2c(Cl)cccc2Cl)noc1C(C)C
EC50 (Bile acid receptor [1]): 110 nM
Activity [2]: 100%
EC50 (Bile acid receptor [3]): 44 nM
Activity [4]: 94%

SMILES: CC(C)c1onc(-c2c(Cl)cccc2Cl)c1COc1ccc(-c2ccc3cc(C(=O)O)ncc3c2)cc1
EC50 (Bile acid receptor [1]): 120 nM
Activity [2]: 83%
EC50 (Bile acid receptor [3]): 77 nM
Activity [4]: 86%
half-life [16]: 4.17 h
half-life [17]: 1.47 h
half-life [18]: 3.83 h
half-life [19]: 10.3 h
clearance [20]: 29 mL/min/kg
clearance [21]: 18 mL/min/kg
clearance [22]: 8.2 mL/min/kg
clearance [23]: 11 mL/min/kg
Vd [24]: 5.1 L/kg
Vd [25]: 1.8 L/kg
Vd [26]: 2 L/kg
Vd [27]: 3.1 L/kg
bioavailability [28]: 6.3%
bioavailability [29]: 30%
bioavailability [30]: 15%
bioavailability [31]: 2.5%
AUC (Mus musculus): 36 ng·kg·h/mg/mL
AUC (Rattus norvegicus): 300 ng·kg·h/mg/mL
AUC (Canis familiaris): 320 ng·kg·h/mg/mL
AUC (Cynomolgus monkey): 40 ng·kg·h/mg/mL
Activity [15]: Active

SMILES: CC(C)c1onc(-c2c(Cl)cccc2Cl)c1COc1ccc(/C=C/c2cccc(C(=O)O)c2)c(Cl)c1
Activity [15]: Active

SMILES: CC(C)c1onc(-c2c(Cl)cccc2Cl)c1COc1ccc(-c2ccc3cc(C(=O)O)cnc3c2)cc1
EC50 (Bile acid receptor [1]): 200 nM
Activity [2]: 87%
EC50 (Bile acid receptor [3]): 260 nM
Activity [4]: 88%

SMILES: Cc1cc2cc(-c3ccc(OCc4c(-c5c(Cl)cccc5Cl)noc4C(C)C)cc3)ccc2nc1C(=O)O
EC50 (Bile acid receptor [1]): 140 nM
Activity [2]: 107%
EC50 (Bile acid receptor [3]): 38 nM
Activity [4]: 101%

SMILES: CC(C)c1onc(-c2c(Cl)cccc2Cl)c1COc1ccc(-c2ccc3nc(C(=O)O)cnc3c2)cc1
EC50 (Bile acid receptor [1]): 150 nM
Activity [2]: 96%
EC50 (Bile acid receptor [3]): 690 nM
Activity [4]: 109%
